Data reported in article PMC9583322, “Vicinal Diaryl-Substituted Isoxazole and Pyrazole Derivatives with In Vitro Growth Inhibitory and In Vivo Antitumor Activity” (ACS Omega, 2022).

Columns and labels:
Assay type in all cases: cell-based
ZR75 = assay: SRB cytotoxicity assay; details: Homo sapiens, 72 h treatment
Protocol: HepG2, FOCUS, Hep3B, Mahlavu, Huh7, Hep40, and PLC-PRF-5 hepatocellular carcinoma cells; MCF-7, MDA-MB-231, MDA-MB-468, SKBR3, and ZR-75 breast cancer cells; and normal-like epithelial MCF-10A breast cells were cultured in low-glucose Dulbecco’s modified Eagle’s medium (DMEM) (Biological Industries-BI) supplemented with 10% fetal bovine serum (FBS) (Gibco/Thermo Fisher Scientific), 2 mM L-Glutamine (Gibco/Thermo Fisher Scientific), 100 Units/mL Penicillin/Streptomycin, and 0.1 mM non-essential amino acid (Gibco/Thermo Fisher Scientific). SNU475 hepatocellular carcinoma cells were maintained in RPMI (Biological Industries-BI) supplemented with 10% fetal bovine serum (FBS) (Gibco/Thermo Fisher Scientific), L-Glutamine (Gibco/Thermo Fisher Scientific), and 100 Units/mL Penicillin/Streptomycin, while ZR-75 breast cancer cells were cultured RPMI (Biological Industries-BI) supplemented with 10% fetal bovine serum (FBS) (Gibco/Thermo Fisher Scientific), 1× sodium pyruvate, and %4.5 glucose. Normal-like MCF-10A breast cells were sustained in DMEM/HAM’S F12 (Hyclone) supplemented with 10% fetal bovine serum (FBS) (Gibco/Thermo Fisher Scientific), EGF (20 ng/mL), Hydrocortisone ([…]), cholera toxin (100 ng/mL), insulin (10 μg/mL), and 100 Units/mL Penicillin/Streptomycin. The cells were cultivated at 37 °C in a humidified incubator under 5% CO2.
Mahlavu, FOCUS, SNU475 (1000 cell/well in 150 μL/well); Huh7, MCF7 (2500 cell/well in 150 μL/well); HepG2, Hep3B, SKBR3 (3000 cell/well in 150 μL/well); PLC-PRF-5, Hep40 (5000 cell/well in 150 μL/well); MDA-MB-231, MDA-MB-468, MCF10A (6000 cell/well in 150 μL/well); and ZR-75 (7500 cell/well in 150 μL/well) were cultured in 96-well plates and were inoculated in an incubator for 24 hours. The compounds were dissolved in dimethyl sulfoxide (DMSO) (Sigma, St Louis, MO) as a 20 mM stock solution. The treatment of cells with the compounds was done in a concentration range starting from 40 to 2.5 μM. The compounds which were below 2.5 μM were tested in a concentration range from 2.5 to 0.15 μM. End of the 72h compound treatment, the cells were fixed using 10% (v/v) trichloroacetic acid (MERCK) for an hour and washed with ddH2O, and left for air-drying. The fixed plates were stained with 50 μL of sulforhodamine B (SRB) solution (Sigma) at RT for 10 min. To remove unbound SRB dye, acetic acid was used to wash cells three times and left for drying. The protein-bound SRB was solubilized with 10 mM Tris-base (Sigma) and their absorbance was measured with a 96-well plate reader at 515 nm wavelength (ELx800, Biotek). The IC50 values of compounds were calculated in comparison with control group DMSO. Data with R^2 values larger than 0.9 are considered significant.

ACHN = assay: NCI-60 single-dose screen; details: Homo sapiens, Renal Cancer, read-out: % Growth Inhibition (GI%)
Protocol: (§1) Moreover, in vitro single-dose anticancer screening of 11 and 85 at 10 μM was performed utilizing the stable panel of 60 cell lines comprising 9 different cancer types at the National Cancer Institute (NCI) under the Developmental Therapeutics Program (Table S1).[31]

BT-549 = assay: NCI-60 single-dose screen; details: Homo sapiens, BT-549, Breast Cancer, read-out: % Growth Inhibition (GI%)
Protocol: as §1

CAKI-1 = assay: NCI-60 single-dose screen; details: Homo sapiens, CAKI-1, Renal Cancer, read-out: % Growth Inhibition (GI%)
Protocol: as §1

DU-145 = assay: NCI-60 single-dose screen; details: Homo sapiens, DU-145, Prostate Cancer, read-out: % Growth Inhibition (GI%)
Protocol: as §1

HCC-2998 = assay: NCI-60 single-dose screen; details: Homo sapiens, HCC-2998, Colon Cancer, read-out: % Growth Inhibition (GI%)
Protocol: as §1

HCT-116 = assay: NCI-60 single-dose screen; details: Homo sapiens, HCT-116, Colon Cancer, read-out: % Growth Inhibition (GI%)
Protocol: as §1

IGROV1 = assay: NCI-60 single-dose screen; details: Homo sapiens, IGROV-1, IGROV1, Ovarian Cancer, read-out: % Growth Inhibition (GI%)
Protocol: as §1

KM12 = assay: NCI-60 single-dose screen; details: Homo sapiens, KM12, Colon Cancer, read-out: % Growth Inhibition (GI%)
Protocol: as §1

LOX-IMVI = assay: NCI-60 single-dose screen; details: Homo sapiens, Melanoma, read-out: % Growth Inhibition (GI%)
Protocol: as §1

NCI-H23 = assay: NCI-60 single-dose screen; details: Homo sapiens, NCI-H23, Non-Small Cell Lung Cancer, read-out: % Growth Inhibition (GI%)
Protocol: as §1

NCI-H322M = assay: NCI-60 single-dose screen; details: Homo sapiens, Non-Small Cell Lung Cancer, read-out: % Growth Inhibition (GI%)
Protocol: as §1

NCI-H460 = assay: NCI-60 single-dose screen; details: Homo sapiens, NCI-H460, Non-Small Cell Lung Cancer, read-out: % Growth Inhibition (GI%)
Protocol: as §1

OVCAR-4 = assay: NCI-60 single-dose screen; details: Homo sapiens, OVCAR-4, Ovarian Cancer, read-out: % Growth Inhibition (GI%)
Protocol: as §1

OVCAR-8 = assay: NCI-60 single-dose screen; details: Homo sapiens, OVCAR-8, Ovarian Cancer, read-out: % Growth Inhibition (GI%)
Protocol: as §1

SK-MEL-5 = assay: NCI-60 single-dose screen; details: Homo sapiens, SK-MEL-5, Melanoma, read-out: % Growth Inhibition (GI%)
Protocol: as §1

SNB-75 = assay: NCI-60 single-dose screen; details: Homo sapiens, SNB-75, CNS Cancer, read-out: % Growth Inhibition (GI%)
Protocol: as §1

SW-620 = assay: NCI-60 single-dose screen; details: Homo sapiens, SW-620, Colon Cancer, read-out: % Growth Inhibition (GI%)
Protocol: as §1

TK-10 = assay: NCI-60 single-dose screen; details: Homo sapiens, TK-10, Renal Cancer, read-out: % Growth Inhibition (GI%)
Protocol: as §1

UACC-257 = assay: NCI-60 single-dose screen; details: Homo sapiens, UACC-257, Melanoma, read-out: % Growth Inhibition (GI%)
Protocol: as §1

In the case of `Cc1ccccc1COc1ccc(-c2noc(C)c2-c2ccc(Cl)cc2)cc1` [compound 11, 4-(4-Chlorophenyl)-5-methyl-3-(4-((2-methylbenzyl)oxy)phenyl)isoxazole], the IC50 (ZR75) is reported as 7.6 µM, the inhibition at 10 µM (ACHN) is reported as 33% and the inhibition at 10 µM (BT-549) is reported as 33.8%. For the same molecule, the inhibition at 10 µM (CAKI-1) was 51.3%, the inhibition at 10 µM (DU-145) was 22.6% and the inhibition at 10 µM (HCC-2998) was 13.4%. The inhibition at 10 µM (HCT-116) was 66%, the inhibition at 10 µM (IGROV1) was 47.5% and the inhibition at 10 µM (KM12) was 45.7%. The inhibition at 10 µM (LOX-IMVI) was 32%, the inhibition at 10 µM (NCI-H23) was 26.2% and the inhibition at 10 µM (NCI-H322M) was 2.44%. The inhibition at 10 µM (NCI-H460) was 45.3%, the inhibition at 10 µM (OVCAR-4) was 17.3% and the inhibition at 10 µM (OVCAR-8) was 24.2%. It also gave an inhibition at 10 µM (SK-MEL-5) of 26.6%, an inhibition at 10 µM (SNB-75) of 47.1% and an inhibition at 10 µM (SW-620) of 68.3%. For the same molecule, the inhibition at 10 µM (TK-10) was 15.7% and the inhibition at 10 µM (UACC-257) was 29.1%.
Molecule `Cc1ccccc1COc1ccc(-c2ccnn2-c2ccc(Cl)cc2)cc1` [compound 85, 1-(4-Chlorophenyl)-5-(4-((2-methylbenzyl)oxy)phenyl)-1H-pyrazole] has an IC50 (ZR75) of 5.5 µM, an inhibition at 10 µM (ACHN) of 22.4% and an inhibition at 10 µM (BT-549) of 25%. The inhibition at 10 µM (CAKI-1) was 40.3%, the inhibition at 10 µM (DU-145) was 11.9% and the inhibition at 10 µM (HCC-2998) was 10.9%. For the same molecule, the inhibition at 10 µM (HCT-116) was 61.9%, the inhibition at 10 µM (IGROV1) was 42.5% and the inhibition at 10 µM (KM12) was 49.3%. For the same molecule, the inhibition at 10 µM (LOX-IMVI) was 35.7%, the inhibition at 10 µM (NCI-H23) was 23.4% and the inhibition at 10 µM (NCI-H322M) was 3.12%. The inhibition at 10 µM (NCI-H460) was 41.7%, the inhibition at 10 µM (OVCAR-4) was 14.3% and the inhibition at 10 µM (OVCAR-8) was 24.8%. The inhibition at 10 µM (SK-MEL-5) was 33.4%, the inhibition at 10 µM (SNB-75) was 39.3% and the inhibition at 10 µM (SW-620) was 70.3%. The inhibition at 10 µM (TK-10) was 16.2% and the inhibition at 10 µM (UACC-257) was 24.3%.
